Data as given in patent US12441689B2 (EpiVario, Inc., priority 2019, dated 2025).

Target: human ACSS2 protein (Homo sapiens (Human), UniProt Q9NR19)
Test: ACSS2 Cell-Free Activity Assay (Cell-Free IC50)
Conditions: 10 nM human ACSS2 protein, 90 minutes at 37 C, pyrophosphatase-coupled, Biomol Green absorbance at 620 nm; read-out: ACSS2 Biochemical IC50
Description: ACSS2 Cell-Free Activity Assay (Cell-Free IC50)

human ACSS2 protein, sequence (Q9NR19 whole entry): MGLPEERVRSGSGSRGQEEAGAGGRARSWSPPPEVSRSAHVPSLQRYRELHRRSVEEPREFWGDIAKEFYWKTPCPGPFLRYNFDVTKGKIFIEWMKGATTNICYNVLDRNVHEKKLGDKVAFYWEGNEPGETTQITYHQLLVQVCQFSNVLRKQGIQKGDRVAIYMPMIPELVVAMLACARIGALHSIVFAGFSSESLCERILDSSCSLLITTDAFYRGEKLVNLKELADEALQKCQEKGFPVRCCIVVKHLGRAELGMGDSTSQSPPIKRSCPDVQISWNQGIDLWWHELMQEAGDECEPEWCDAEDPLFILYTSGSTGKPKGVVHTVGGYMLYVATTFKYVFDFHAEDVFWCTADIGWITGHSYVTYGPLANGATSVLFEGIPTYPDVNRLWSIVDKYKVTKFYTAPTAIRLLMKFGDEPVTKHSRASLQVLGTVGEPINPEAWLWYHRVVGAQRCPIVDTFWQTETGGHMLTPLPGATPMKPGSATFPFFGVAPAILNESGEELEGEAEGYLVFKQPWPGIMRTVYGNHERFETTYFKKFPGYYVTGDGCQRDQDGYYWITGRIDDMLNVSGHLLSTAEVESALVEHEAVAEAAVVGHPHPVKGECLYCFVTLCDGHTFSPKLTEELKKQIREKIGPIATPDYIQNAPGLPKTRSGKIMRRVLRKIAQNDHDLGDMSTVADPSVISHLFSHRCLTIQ

Row | Structure (SMILES) | IC50 [nM]
1 | CCC(F)(F)c1cccc(NC(=O)C2CCN(Cc3ccc(OC)cc3)C(c3ccc(OC)cc3)C2O)c1 (stereo not drawn) [Compound 275, N-(3-(1,1-difluoropropyl)phenyl)-3-hydroxy-1-(4-methoxybenzyl)-2-(4-methoxyphenyl)piperidine-4-carboxamide] | > 100
2 | Cc1nc(-c2ccc(OC(F)F)cc2)cnc1C(=O)Nc1cccc(C(C)(F)F)c1 [Compound 133, N-(3-(1,1-difluoroethyl)phenyl)-5-(4-(difluoromethoxy)phenyl)-3-methylpyrazine-2-carboxamide] | > 100
3 | Cc1nn(-c2ccc(OC(F)F)cc2)c(CC(C)C)c1C(=O)Nc1cccc(C(C)(F)F)c1 [Compound 150, N-(3-(1,1-difluoroethyl)phenyl)-1-(4-(difluoromethoxy)phenyl)-5-isobutyl-3-methyl-1H-pyrazole-4-carboxamide] | > 100
4 | Cc1cc(-c2ccccc2)cc(-c2nc(C)cc(C(=O)Nc3cccc(C(C)(F)F)c3)n2)c1 [Compound 219, N-(3-(1,1-difluoroethyl)phenyl)-6-methyl-2-(5-methyl-[1,1’-biphenyl]-3-yl)pyrimidine-4-carboxamide] | > 100
5 | CCc1c(C(=O)Nc2cccc(C(C)(F)F)c2)c(C)nn1-c1ccc(OC(F)F)cc1 [Compound 156, N-(3-(1,1-difluoroethyl)phenyl)-1-(4-(difluoromethoxy)phenyl)-5-ethyl-3-methyl-1H-pyrazole-4-carboxamide] | > 100
6 | CCC(F)(F)c1cccc(NC(=O)c2nc(-c3ccc(OC(F)F)c(-c4cccnc4)c3)oc2C)c1 [Compound 221, 2-(4-(difluoromethoxy)-3-(pyridin-3-yl)phenyl)-N-(3-(1,1-difluoropropyl)phenyl)-5-methyloxazole-4-carboxamide] | > 100
7 | Cc1nn(-c2ccc(OC(F)F)c(-c3cccnc3)c2)c(OC(=O)N2CCN(CCO)CC2)c1C(=O)Nc1cccc(C(C)(F)F)c1 [Compound 187, 4-((3-(1,1-difluoroethyl)phenyl)carbamoyl)-1-(4-(difluoromethoxy)-3-(pyridin-3-yl)phenyl)-3-methyl-1H-pyrazol-5-yl 4-(2-hydroxyethyl)piperazine-1-carboxylate] | > 100
8 | CCC(F)(F)c1cccc(NC(=O)c2c(C)nn(-c3ccc(OC)cc3)c2C(=O)OC)c1 [Compound 234, methyl 4-((3-(1,1-difluoropropyl)phenyl)carbamoyl)-1-(4-methoxyphenyl)-3-methyl-1H-pyrazole-5-carboxylate] | > 100
9 | CCc1c(C(=O)Nc2cccc(C(C)(F)F)c2)c(C)nn1-c1ccc(OC(F)F)c(-c2cccnc2)c1 [Compound 152, N-[3-(1,1-difluoroethyl)phenyl]-1-[4-(difluoromethoxy)-3-(3-pyridyl)phenyl]-5-ethyl-3-methyl-pyrazole-4-carboxamide] | > 100
10 | CCC(F)(F)c1cccc(NC(=O)c2cc(C)nc(-c3cc(C)cc(-c4ccccc4)c3)n2)c1 [Compound 226, N-(3-(1,1-difluoropropyl)phenyl)-6-methyl-2-(5-methyl-[1,1′-biphenyl]-3-yl)pyrimidine-4-carboxamide] | > 100
11 | CC1=NN(c2ccc(OC(F)F)cc2)C(=O)[C@@]1(C)C(=O)Nc1cccc(C(C)(F)F)c1 [Compound 169, (4R)—N-(3-(1,1-difluoroethyl)phenyl)-1-(4-(difluoromethoxy)phenyl)-3,4-dimethyl-5-oxo-4,5-dihydro-1H-pyrazole-4-carboxamide] | > 100
12 | CC(F)(F)c1cccc(NC(=O)C2C(=O)N(c3ccc(OC(F)F)cc3)N=C2CS)c1 (stereo not drawn) [Compound 197] | > 100
13 | CC1=NN(c2ccc(OC(F)F)cc2)C(=O)C1(C)C(=O)Nc1cccc(C(C)(F)F)c1 (stereo not drawn) [Compound 174, N-(3-(1,1-difluoroethyl)phenyl)-1-(4-(difluoromethoxy)phenyl)-3,4-dimethyl-5-oxo-4,5-dihydro-1H-pyrazole-4-carboxamide] | > 100
14 | CCC(F)(F)c1cccc(NC(=O)c2nc(-c3ccc(OC(F)F)c(-c4ccccc4)c3)cnc2C)c1 [Compound 117, 6-[4-(difluoromethoxy)-3-phenyl-phenyl]-N-[3-(1,1-difluoropropyl)phenyl]-3-methyl-pyrazine-2-carboxamide] | > 100

Continued, values first:

Row | IC50 [nM] | Structure (SMILES)
15 | > 100 | CC1=NN(c2ccc(OC(F)F)cc2)C(=O)[C@]1(C)C(=O)Nc1cccc(C(C)(F)F)c1 [Compound 170, (4S)—N-(3-(1,1-difluoroethyl)phenyl)-1-(4-(difluoromethoxy)phenyl)-3,4-dimethyl-5-oxo-4,5-dihydro-1H-pyrazole-4-carboxamide]
16 | 1 to 100 | CCC(F)(F)c1cccc(NC(=O)C2C(=O)N(c3cc(Cc4ccccc4)c(OC)c(-c4ccccc4)c3)N=C2C)c1 (stereo not drawn) [Compound 121, 1-(5-benzyl-6-methoxy-[1,1′-biphenyl]-3-yl)-N-(3-(1,1-difluoropropyl)phenyl)-3-methyl-5-oxo-4,5-dihydro-1H-pyrazole-4-carboxamide]
17 | 1 to 100 | Cc1nn(-c2cc(-c3ccccc3)c(OC(F)F)c(-c3ccccc3)c2)cc1C(=O)Nc1cccc(C(C)(F)F)c1 [Compound 176, N-(3-(1,1-difluoroethyl)phenyl)-1-(2′-(difluoromethoxy)-[1,1′:3′,1″-terphenyl]-5′-yl)-3-methyl-1H-pyrazole-4-carboxamide]
18 | > 100 | Cc1oc(-c2ccc3cc[nH]c3c2)nc1C(=O)Nc1cccc(C(C)(F)F)c1 [Compound 107, N-[3-(1,1-difluoroethyl)phenyl]-2-(1H-indol-6-yl)-5-methyl-oxazole-4-carboxamide]
19 | > 100 | Cc1oc(-c2ccc(OC(F)F)c(-c3ccccn3)c2)nc1C(=O)Nc1cccc(C(C)(F)F)c1 [Compound 258, N-(3-(1,1-difluoroethyl)phenyl)-2-(4-(difluoromethoxy)-3-(pyridin-2-yl)phenyl)-5-methyloxazole-4-carboxamide]
20 | > 100 | Cc1nc(-c2cc(-n3cc(C(=O)Nc4cccc(C(C)(F)F)c4)c(C)n3)ccc2OC(F)F)co1 [Compound 131, N-(3-(1,1-difluoroethyl)phenyl)-1-(4-(difluoromethoxy)-3-(2-methyloxazol-4-yl)phenyl)-3-methyl-1H-pyrazole-4-carboxamide]
21 | > 100 | CCC(F)(F)c1cccc(NC(=O)c2nc(-c3ccc(OC)cc3)oc2C)c1 [Compound 116, N-(3-(1,1-difluoropropyl)phenyl)-2-(4-methoxyphenyl)-5-methyloxazole-4-carboxamide]
22 | < 1 | CCC(F)(F)c1cccc(NC(=O)C2(Cl)C(=O)N(c3ccc(OC(F)F)cc3)N=C2C)c1 (stereo not drawn) [Compound 163, 4-chloro-1-(4-(difluoromethoxy)phenyl)-N-(3-(1,1-difluoropropyl)phenyl)-3-methyl-5-oxo-4,5-dihydro-1H-pyrazole-4-carboxamide]
23 | 1 to 100 | Cc1nn(-c2ccc(OC(F)F)cc2)c(C(F)(F)F)c1C(=O)Nc1cccc(C(C)(F)F)c1 [Compound 192, N-(3-(1,1-difluoroethyl)phenyl)-1-(4-(difluoromethoxy)phenyl)-3-methyl-5-(trifluoromethyl)-1H-pyrazole-4-carboxamide]
24 | 1 to 100 | CCCc1cc(N2N=C(C)C(C(=O)Nc3cccc(C(F)(F)CC)c3)C2=O)cc(-c2ccccc2)c1OC (stereo not drawn) [Compound 225, N-(3-(1,1-difluoropropyl)phenyl)-1-(6-methoxy-5-propyl-[1,1’-biphenyl]-3-yl)-3-methyl-5-oxo-4,5-dihydro-1H-pyrazole-4-carboxamide]
25 | 1 to 100 | Cc1cc(C(=O)Nc2cccc(C(C)(F)F)c2)nc(-c2ccc(OC(F)F)cc2)n1 [Compound 147, N-(3-(1,1-difluoroethyl)phenyl)-2-(4-(difluoromethoxy)phenyl)-6-methylpyrimidine-4-carboxamide]
26 | < 1 | CCC(F)(F)c1cccc(NC(=O)c2c(C)[nH]c(-c3ccc(OC)cc3)[n+]2[O-])c1 [Compound 248, 4-((3-(1,1-difluoropropyl)phenyl)carbamoyl)-2-(4-methoxyphenyl)-5-methyl-1H-imidazole 3-oxide]
27 | 1 to 100 | Cc1nn(-c2ccc(OC(F)F)cc2)c(N(C)C)c1C(=O)Nc1cccc(C(C)(F)F)c1 [Compound 168, N-(3-(1,1-difluoroethyl)phenyl)-1-(4-(difluoromethoxy)phenyl)-5-(dimethylamino)-3-methyl-1H-pyrazole-4-carboxamide]
28 | 1 to 100 | COc1c(C(=O)Nc2cccc(C(C)(F)F)c2)c(C)nn1-c1ccc(OC(F)F)cc1 [Compound 199, N-(3-(1,1-difluoroethyl)phenyl)-1-(4-(difluoromethoxy)phenyl)-5-methoxy-3-methyl-1H-pyrazole-4-carboxamide]
29 | 1 to 100 | Cc1nn(-c2ccc(OC(F)F)cc2)c(CO)c1C(=O)Nc1cccc(C(C)(F)F)c1 [Compound 194, N-[3-(1,1-difluoroethyl)phenyl]-1-[4-(difluoromethoxy)phenyl]-5-(hydroxymethyl)-3-methyl-pyrazole-4-carboxamide]
30 | 1 to 100 | Cc1nn(-c2ccc(OC(F)F)cc2)c(C2CC2)c1C(=O)Nc1cccc(C(C)(F)F)c1 [Compound 145, 5-cyclopropyl-N-[3-(1,1-difluoroethyl)phenyl]-1-[4-(difluoromethoxy)phenyl]-3-methyl-pyrazole-4-carboxamide]
31 | 1 to 100 | Cc1cc(C(=O)Nc2cccc(C(C)(F)F)c2)nc(-c2ccc(OC(F)F)c(-c3ccccc3)c2)n1 [Compound 130, N-(3-(1,1-difluoroethyl)phenyl)-2-(6-(difluoromethoxy)-[1,1′-biphenyl]-3-yl)-6-methylpyrimidine-4-carboxamide]
32 | 1 to 100 | CCC(F)(F)c1cccc(NC(=O)C2C(=O)N(c3cc(CC4CCCCC4)c(OC)c(-c4ccccc4)c3)N=C2C)c1 (stereo not drawn) [Compound 128, 1-(5-(cyclohexylmethyl)-6-methoxy-[1,1′-biphenyl]-3-yl)-N-(3-(1,1-difluoropropyl)phenyl)-3-methyl-5-oxo-4,5-dihydro-1H-pyrazole-4-carboxamide]
33 | 1 to 100 | Cc1nc(-c2ccc(OC(F)F)c(-c3ccccc3)c2)cnc1C(=O)Nc1cccc(C(C)(F)F)c1 [Compound 135, N-[3-(1,1-difluoroethyl)phenyl]-5-[4-(difluoromethoxy)-3-phenyl-phenyl]-3-methyl-pyrazine-2-carboxamide]
